Where a SMILES comes first, the peptide text is derived from it. Bridges are numbered along the chain shown (N, C = ends). [ ]: non-standard residue; d: D form. NMeY = CN[C@@H](Cc1ccc(O)cc1)C(=O)O; R8 = C=CCCCCCC[C@@](C)(N)C(=O)O; S5 = C=CCCC[C@](C)(N)C(=O)O; Nle = CCCC[C@H](N)C(=O)O; Abu = CC[C@H](N)C(=O)O; Aib = CC(C)(N)C(=O)O
What follows are compounds tested against T1, human GHRH receptor (hGHRHR) (Homo sapiens, UniProt Q02643) (assay: GHRHR agonism measured by cAMP (HTRF) in human 293 cells expressing hGHRHR). Settings: 30 min at RT.
T1 construct: expressed in transfected cells; host or cells: Human 293 cells
T1 sequence (Q02643 23-423): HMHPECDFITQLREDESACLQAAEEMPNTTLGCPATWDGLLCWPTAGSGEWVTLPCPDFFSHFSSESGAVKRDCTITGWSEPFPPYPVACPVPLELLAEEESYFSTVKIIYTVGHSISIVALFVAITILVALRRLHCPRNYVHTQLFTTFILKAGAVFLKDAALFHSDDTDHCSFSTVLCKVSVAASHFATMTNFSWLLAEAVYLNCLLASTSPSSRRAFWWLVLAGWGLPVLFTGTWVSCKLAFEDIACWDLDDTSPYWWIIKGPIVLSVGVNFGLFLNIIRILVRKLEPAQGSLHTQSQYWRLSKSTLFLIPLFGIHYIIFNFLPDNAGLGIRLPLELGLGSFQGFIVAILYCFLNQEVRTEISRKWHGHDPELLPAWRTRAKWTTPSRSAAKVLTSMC
Type: cell-based
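Note: receptor expressed transiently or stably, cells stimulated in serum-free medium, EC50 from a non-linear dose-response fit, maximal response defined by reference GHRH stimulation.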

SMILES | EC50 [nM]
CCCC[C@H](NC(=O)[C@@H](NC(=O)[C@H](CC(=O)O)NC(=O)[C@H](CCC(N)=O)NC(=O)[C@H](CC(C)C)NC(=O)[C@H](C)NC(=O)[C@H](CCCCN)NC(=O)[C@H](CCCNC(=N)N)NC(=O)[C@H](C)NC(=O)[C@H](CO)NC(=O)[C@H](CC(C)C)NC(=O)[C@H](CCC(N)=O)NC(=O)[C@H](C)NC(=O)[C@H](CC(C)C)NC(=O)[C@@H](NC(=O)[C@H](CCCCN)NC(=O)[C@H](CCCNC(=N)N)NC(=O)[C@H](Cc1ccc(O)cc1)NC(=O)[C@H](CO)NC(=O)C(C)(C)NC(=O)[C@@H](NC(=O)[C@H](Cc1ccccc1)NC(=O)[C@@H](NC(=O)[C@H](C)NC(=O)[C@H](CC(=O)O)NC(=O)[C@H](C)NC(=O)[C@H](Cc1ccc(O)cc1)NC)[C@@H](C)CC)[C@@H](C)O)C(C)C)[C@@H](C)CC)C(=O)N[C@@H](CO)C(=O)N[C@@H](CCCNC(=N)N)C(N)=O [SP-41] (H-[NMeY]ADAIFT[Aib]SYRKVLAQLSARKALQDI[Nle]SR-NH2) | ≤ 1
CCCC[C@H](NC(=O)[C@@H](NC(=O)[C@H](CC(=O)O)NC(=O)[C@H](CCC(N)=O)NC(=O)[C@H](CC(C)C)NC(=O)[C@H](C)NC(=O)[C@H](CCCCN)NC(=O)[C@H](CCCNC(=N)N)NC(=O)[C@H](C)NC(=O)[C@H](CO)NC(=O)[C@H](CC(C)C)NC(=O)[C@H](CCC(N)=O)NC(=O)[C@H](C)NC(=O)[C@H](CC(C)C)NC(=O)[C@@H](NC(=O)[C@H](CCCCN)NC(=O)[C@H](CCCNC(=N)N)NC(=O)[C@H](Cc1ccc(O)cc1)NC(=O)[C@H](CO)NC(=O)[C@H](CCC(N)=O)NC(=O)[C@@H](NC(=O)[C@H](Cc1ccccc1)NC(=O)[C@@H](NC(=O)[C@H](C)NC(=O)[C@H](CC(=O)O)NC(=O)[C@H](C)NC(=O)[C@H](Cc1ccc(O)cc1)NC)[C@@H](C)CC)[C@@H](C)O)C(C)C)[C@@H](C)CC)C(=O)N[C@@H](CO)C(=O)N[C@@H](CCCNC(=N)N)C(N)=O [SP-43] (H-[NMeY]ADAIFTQSYRKVLAQLSARKALQDI[Nle]SR-NH2) | ≤ 1
CCCC[C@H](NC(=O)[C@@H](NC(=O)[C@H](CC(=O)O)NC(=O)[C@H](CCC(N)=O)NC(=O)[C@]1(C)CCCC=CCCCCCC[C@@](C)(NC(=O)[C@H](C)NC(=O)[C@H](CC(C)C)NC(=O)[C@@H](NC(=O)[C@H](CCCCN)NC(=O)[C@H](CCCNC(=N)N)NC(=O)[C@H](Cc2ccc(O)cc2)NC(=O)[C@H](CO)NC(=O)[C@H](C)NC(=O)[C@@H](NC(=O)[C@H](Cc2ccccc2)NC(=O)[C@@H](NC(=O)[C@H](C)NC(=O)[C@H](CC(=O)O)NC(=O)[C@H](C)NC(=O)[C@H](Cc2ccc(O)cc2)NC)[C@@H](C)CC)[C@@H](C)O)C(C)C)C(=O)N[C@@H](CC(C)C)C(=O)N[C@@H](CO)C(=O)N[C@@H](C)C(=O)N[C@@H](CCCNC(=N)N)C(=O)N[C@@H](CCCCN)C(=O)N[C@@H](C)C(=O)N1)[C@@H](C)CC)C(=O)N[C@@H](CO)C(=O)N[C@@H](CCCNC(=N)N)C(N)=O [SP-28] (H-[NMeY]ADAIFTASYRKVLA[R8]LSARKA[S5]QDI[Nle]SR-NH2; staple 16-23) | 1 to 10
CCCC[C@H](NC(=O)[C@@H](NC(=O)[C@H](CC(=O)O)NC(=O)[C@H](CCC(N)=O)NC(=O)[C@H](CC(C)C)NC(=O)[C@H](C)NC(=O)[C@H](CCCCN)NC(=O)[C@H](CCCNC(=N)N)NC(=O)[C@H](C)NC(=O)[C@H](CO)NC(=O)[C@H](CC(C)C)NC(=O)[C@H](CCC(N)=O)NC(=O)[C@H](CC)NC(=O)[C@H](CC(C)C)NC(=O)[C@@H](NC(=O)[C@H](CCCCN)NC(=O)[C@H](CCCNC(=N)N)NC(=O)[C@H](Cc1ccc(O)cc1)NC(=O)[C@H](CO)NC(=O)[C@H](C)NC(=O)[C@@H](NC(=O)[C@H](Cc1ccccc1)NC(=O)[C@@H](NC(=O)[C@H](C)NC(=O)[C@H](CC(=O)O)NC(=O)[C@H](C)NC(=O)[C@H](Cc1ccc(O)cc1)NC)[C@@H](C)CC)[C@@H](C)O)C(C)C)[C@@H](C)CC)C(=O)N[C@@H](CO)C(=O)N[C@@H](CCCNC(=N)N)C(N)=O [SP-44] (H-[NMeY]ADAIFTASYRKVL[Abu]QLSARKALQDI[Nle]SR-NH2) | 1 to 10
